Assay results reported in patent US12344649B2, “Modulators of parathyroid hormone receptor (PTHR1)” (Flagship Pioneering Innovations VI, LLC, priority 2019, dated 2025).
pEC50: −log10 of the molar value. Where “and” joins values, the source holds several entries; their conditions need not be identical. Identical values can stand only once. Where no end group is shown, it is not given here.

How the values were obtained:
Assay type in all cases: cell-based
PTHR1 [1] = target: T1, PTHR1 (Homo sapiens, UniProt Q03431); assay: β-arrestin1 recruitment BRET assay in transfected HEK293T cells; design: Flag (N); Life Technologies Corporation, CA (arrestin cDNA); host or cells: HEK293T (CRL-3216, ATCC); settings: for −log10Slope / EC50: β-arrestin1 recruitment; for −log10Slope: fitted curve slope; for EC50: read-out: −log10EC50 (converted); for β1-arrestin: relative to PTH [1-34], HEK293T cells, BRET
T1 sequence (Q03431 27-593): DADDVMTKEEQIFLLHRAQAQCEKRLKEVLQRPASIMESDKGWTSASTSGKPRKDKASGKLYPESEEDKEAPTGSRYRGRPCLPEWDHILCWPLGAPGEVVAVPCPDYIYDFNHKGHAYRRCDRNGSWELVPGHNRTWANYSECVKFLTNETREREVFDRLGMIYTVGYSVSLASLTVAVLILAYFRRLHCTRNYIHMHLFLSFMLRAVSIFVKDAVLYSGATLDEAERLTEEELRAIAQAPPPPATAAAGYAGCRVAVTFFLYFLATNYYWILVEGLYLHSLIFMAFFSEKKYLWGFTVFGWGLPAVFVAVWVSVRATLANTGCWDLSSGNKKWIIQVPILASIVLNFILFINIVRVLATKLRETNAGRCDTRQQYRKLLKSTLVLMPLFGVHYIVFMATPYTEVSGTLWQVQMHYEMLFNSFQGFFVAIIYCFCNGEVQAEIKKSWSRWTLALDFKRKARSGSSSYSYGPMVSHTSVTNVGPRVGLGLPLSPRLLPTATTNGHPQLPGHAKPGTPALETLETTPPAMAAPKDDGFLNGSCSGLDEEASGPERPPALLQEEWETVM
Method: (§1) 18-24 hours post transfection, the Luciferase substrate Coelenterazine (NanoLight Technologies, AZ) was added to cells, a baseline BRET measurement was taken after 5 minutes incubation, and then serial dilutions of peptides, diluted in PBS (with 0.5 mM MgCl2+0.1% BSA FAF), were added to cells, and BRET signal was measured every 2 minutes for 30 minutes on Hybrid Multi-Mode Reader (Synergy Neo2, BioTek, VT). Seventy-five peptides were tested in the β-arrestin recruitment assay.

PTHR1 [2] = target: T1, PTHR1; assay: cAMP accumulation assay (HTRF) in CHO-K1/Ga15/PTHR1 cells; design: host or cells: CHO-K1 (recombinant line CHO-K1/Ga15/PTHR1); settings: for Emax: CHO-K1, cAMP assay, fitted dose-response maximum; for EC50: read-out: −log10EC50 (converted); for cAMP accumulation activity compared to control peptide: FIG. 3, PTH 1-34 positive control; for cAMP: relative to PTH [1-34], CHO-K1/Ga15/PTHR1 cells
Method: Cell suspension (5 μL) was seeded in 384-well plates at a density of 3,000 cells/well. Cells were treated with test samples (5 μL) or agonist (PTH 1-34) for 30 minutes at room temperature. cAMP-d2 working solution (5 μL) and anti-cAMP-Cryptate working solution (5 μL) were added to cells and incubated for 60 minutes at room temperature. The signal of the assay plate was read with PheraStar (BMG LABTECH, NC), an HTRF compatible reader.

PTHR1 [3] = target: T1, PTHR1; assay: β-arrestin2 recruitment BRET assay in transfected HEK293T cells; design: Flag (N); Life Technologies Corporation, CA (arrestin cDNA); host or cells: HEK293T (CRL-3216, ATCC); settings: for −log10Slope / EC50: β-arrestin2 recruitment; for −log10Slope: fitted curve slope; for EC50: read-out: −log10EC50 (converted); for β-arrestin2 assay activity compared to control peptide: FIG. 2, PTH 1-34 positive control; for β2-arrestin: relative to PTH [1-34], HEK293T cells, BRET
Method: as §1

[4] = cAMP assay, fitted dose-response curve
[5] = cAMP assay, fitted dose-response slope
[6] = cAMP accumulation, fitted curve slope, replicate plates
[7] = cAMP accumulation, replicate plates
[8] = replicate plates, listed as R1-81

Row | Sequence | −log10Slope (PTHR1 [1]; replicate plates) | Emax (PTHR1 [2]) [%] | EC50 (PTHR1 [2]; [4]) [nM] | −log10Slope (PTHR1 [2]; [5]) | −log10Slope (PTHR1 [3]; replicate plates) | EC50 (PTHR1 [1]; replicate plates) | β-arrestin1 recruitment compared to PTH 1-34 (PTHR1 [1]; FIG. 1, PTH 1-34 positive control) | β1-arrestin (PTHR1 [1]) | −log10Slope (PTHR1 [2]; [6]) | EC50 (PTHR1 [2]; [7]) [nM] | cAMP accumulation activity compared to control peptide (PTHR1 [2]) | cAMP (PTHR1 [2]) | EC50 (PTHR1 [3]; replicate plates) | β-arrestin2 assay activity compared to control peptide (PTHR1 [3]) | β2-arrestin (PTHR1 [3]) | −log10Slope (PTHR1 [1]; [8]) | −log10Slope (PTHR1 [3]; [8]) | pEC50 (PTHR1 [1]; −log10EC50, β-arrestin1 recruitment, replicate plates) | pEC50 (PTHR1 [2]) | pEC50 (PTHR1 [3]; −log10EC50, β-arrestin2 recruitment, replicate plates)
1 | AVAEIQLMHQRAKWELEFELFREFLKLLVDFF [Peptide R1-97] | −0.04462 and −1.336 and −0.04454 and −4.221 | 99.3 | 58.7 | −14.176 | −4.859 and −4.946 and −1.289 and −4.995 |  |  |  |  |  |  |  |  |  |  |  |  |  |  | 
2 | AVAEIQLMHQRAKWELEYELFEMFLKLLEEIF [Peptide R1-100] | −6.023 and −5.129 and −4.482 | 99.9 | 52.8 | −12.0796 | −5.84 and −1.653 and −5.805 | 607 nM and 605 nM and 569 nM |  |  |  |  |  |  |  |  |  |  |  |  |  | 
3 | AVAEIQLMHQRAKWELLEELLKILLELLKEYI [Peptide R2-38] | −5.307 |  |  |  | −4.789 | 0.0179 nM | higher levels of recruitment of β-arrestin 1 | ++ | −7.566 | 124 |  |  |  |  |  |  |  |  |  | 
4 | AVAEIQLMHQRAKWELQEIGIAITLRLLARYI [Peptide R2-43] | −3.786 and −3.741 and −1.605 |  |  |  | −6.422 and −8.23 and −2.379 |  |  |  | 7.669 | 0.0348 | increased activity as compared to the control peptide | ++ |  |  |  |  |  |  |  | 
5 | AVAEIQLMHQRAKWGLDLELAVKLQEILKDVL [Peptide R2-28] | −1.455 |  |  |  | −3.381 |  |  |  | −5.52 | 92.4 |  |  | 800 nM |  |  |  |  |  |  | 
6 | AVAEIQLMHQRAKWGLDLELRARLREILRDVY [Peptide R2-31] | −2.895 and −4.559 |  |  |  | −3.98 and −2.409 | 9.96 nM and 2.96 nM |  |  | −0.697 |  |  |  | 6.58 nM and 7.64 nM | activity similar to the control peptide | + |  |  |  |  | 
7 | AVAEIQLMHQRAKWGLEIELLKLLLSLLKEYI [Peptide R2-45] | −4.328 and −4.739 and −2.6191 |  |  |  | −2.787 and −1.761 and −3.574 | 483 nM and 470 nM and 542 nM |  |  | 4.438 | 0.00841 | increased activity as compared to the control peptide | ++ | 255 nM and 1750 nM and 337 nM |  |  |  |  |  |  | 
8 | AVAEIQLMHQRAKWGLELELKEKLRKILEDVY [Peptide R2-26] | −2.291 and −7.462 |  |  |  | −2.019 and −6.257 | 27.1 nM and 12.9 nM |  |  | −14.6415 | 84.5 |  |  | 16.1 nM and 12.5 nM |  |  |  |  |  |  | 
9 | AVAEIQLMHQRAKWGVELQLKVDLRRILEDVY [Peptide R2-35] | −0.6156 and −2.473 and −2.432 |  |  |  | −3.628 and −0.891 and −4.077 |  |  |  | −9.142 | 9.84 | activity similar to the control peptide | + |  |  |  |  |  |  |  | 
10 | AVAEIQLMHQRAKWIQDARRRAFLHKLIAEIH [LA-PM-FL, reference compound] |  |  |  |  |  | 1.75 nM and 2.65 nM and 3.53 nM |  | + | −5.23 | 13.1 |  |  | 3.64 nM and 3.04 nM and 3.08 nM | increased activity as compared to control | ++ | −3.271 and −2.571 and −2.99 | −3.14 and −3.448 and −2.307 |  |  | 
11 | AVAEIQLMHQRAKWKILEELLKILIDLLKQYI [Peptide R2-48] | −3.1505 and −0.7628 | 98.8 | 64 | −14.2687 | −8.231 and −1.939 | 1890 nM |  |  |  |  |  |  | 0.0212 nM | increased activity as compared to control | ++ |  |  |  |  | 
12 | AVAEIQLMHQRAKWKLDLELAVSLRKILEDVY [Peptide R2-27] | −7.323 and −7.877 |  |  |  | −1.829 and −3.204 | 12 nM and 9.45 nM |  |  | −4.343 | 12.2 | activity similar to the control peptide | + | 22.6 nM and 8.32 nM |  |  |  |  |  |  | 
13 | AVAEIQLMHQRAKWKLELELKAFLDQILKDVL [Peptide R2-36] | −5.884 and −3.429 and −1.931 |  |  |  | −4.1664 and −3.85 and −3.8162 | 1.47 nM and 4.7 nM and 2.91 nM |  | + | −1.696 | 4.76 | activity similar to the control peptide | + | 2.5 nM and 1.98 nM and 5.39 nM | increased activity as compared to control | ++ |  |  |  |  | 
14 | AVAEIQLMHQRAKWKLELELKEKIRKLLEDLL [Peptide R2-29] | −5.782 and −7.833 |  |  |  | −2.874 and −3.055 |  |  | + | −16.1973 |  |  |  |  | increased activity as compared to control | ++ |  |  | 8.15 and 8.77 | 7.22 | 8.39 and 8.46
15 | AVAEIQLMHQRAKWKLELELKVKLLEILKDVY [Peptide R2-25] | −3.965 and −2.819 |  |  |  | −3.2515 and −2.752 | 2.59 nM and 5.42 nM |  |  | −10.1961 | 12.9 | activity similar to the control peptide | + | 4.3 nM and 1.73 nM | increased activity as compared to control | ++ |  |  |  |  | 
16 | AVAEIQLMHQRAKWLEELKLKDDLRKILEDVY [Peptide R2-30] | −4.267 and −2.2289 |  |  |  | −2.543 and −1.4524 | 13.3 nM and 5.21 nM |  |  | −18.1852 | 80 |  |  | 12.1 nM and 5.02 nM | activity similar to the control peptide | + |  |  |  |  | 
17 | AVAEIQLMHQRAKWLNELRLKEEMRKILEDVY [Peptide R2-33] | −2.007 and −4.048 and −4.079 |  |  |  | −5.331 and −2.162 and −8.426 | 5.83 nM and 10.3 nM and 3.98 nM |  |  | −17.9495 | 80.1 |  |  | 7.61 nM and 4.94 nM and 8.19 nM | activity similar to the control peptide | + |  |  |  |  | 
18 | AVAEIQLMHQRAKWRLEIELLKKLKEILKDVY [Peptide R2-34] | −3.251 and −3.221 and −4.25 |  |  |  | −3.972 and −3.591 and −3.249 | 2.75 nM and 6.54 nM and 3.31 nM |  |  | −11.9049 | 106 |  |  | 4.54 nM and 3.85 nM and 8.05 nM | activity similar to the control peptide | + |  |  |  |  | 
19 | AVAEIQLMHQRAKWSLREELEKLLKELLKEYI [Peptide R2-44] | −3.276 and −2.346 and −3.027 |  |  |  | −0.789 and −3.6425 and −9.383 | 2.88 nM and 15 nM and 2.81 nM |  |  | 0.4711 | 0.0365 | increased activity as compared to the control peptide | ++ |  |  |  |  |  |  |  | 
20 | GIAVITLMDLRAYLRAEYELREMLLRLLEEIF [Peptide R2-13] | −3.163 |  |  |  | −3.619 | 1.61 nM |  | + | −3.312 | 4870 |  |  |  |  |  |  |  |  |  | 
